Reference: US6906198B1, “Antipicornaviral compounds, their preparation and use” (Agouron Pharmaceuticals, Inc., priority 1998, dated 2005)
Like-named read-outs stand apart in the source and are kept apart here.

What was measured:
HRV serotype 10 = assay: Antirhinoviral H1-HeLa cell culture assay (XTT), HRV-10; type: cell-based, human rhinovirus; conditions: H1-HeLa cells
Method: (§1) Antirhinoviral H1-HeLa Cell Culture Assay
(§2) In this cell protection assay, the ability of compounds to protect cells against HRV infection was measured by the XTT dye reduction method, which is described in Weislow et al., J. Natl. Cancer Inst. 1989, vol. 81, 577-586.
(§3) H1-HeLa cells were infected with HRV-14 at a multiplicity of infection (m.o.i.) of 0.13 (virus particles/cell) or mock-infected with medium only. Infected or mock-infected cells were resuspended at 8×10^5 cells per mL, and incubated with appropriate concentrations of the compounds to be tested. Two days later, XTT/PMS was added to test plates and the amount of formazan produced was quantified spectrophotometrically at 450/650 nm. The EC50 value was calculated as the concentration of compound that increased the percentage of formazan production in compound-treated, virus-infected cells to 50% of that produced by compound-free, mock-infected cells. The 50% cytotoxic dose (CC50) was calculated as the concentration of compound that decreased the percentage of formazan produced in compound-treated, mock-infected cells to 50% of that produced by compound-free, mock-infected cells. The therapeutic index (TI) was calculated by dividing the CC50 value by the EC50 value.
(§4) All strains of human rhinovirus (HRV) for use in this assay were purchased from American Type Culture Collection (ATCC), except for HRV serotype-14 (produced from the infectious cDNA clone constructed by Dr. Robert Rueckert, Institute for Molecular Virology, University of Wisconsin, Madison, Wis.). HRV stocks were propagated and viral assays were performed in H1-HeLa cells (ATCC). Cells were grown in minimal essential medium with 10% fetal bovine serum, available from Life Technologies (Gaithersburg, Md.).
(§5) The compounds were tested against control compounds WIN 51711, WIN 52084, and WIN 54954 (obtained from Sterling-Winthrop Pharmaceuticals), Pirodavir (obtained from Janssen Pharmaceuticals), and Pleconaril (prepared according to the method described in Diana et al., J. Med. Chem 1995, vol. 38, 1355). […]

HRV-14 = assay: Antirhinoviral H1-HeLa cell culture assay (XTT), HRV-14; type: cell-based, human rhinovirus
Method: as §1, §2, §3, §4
The compounds were tested against control compounds WIN 51711, WIN 52084, and WIN 54954 (obtained from Sterling-Winthrop Pharmaceuticals), Pirodavir (obtained from Janssen Pharmaceuticals), and Pleconaril (prepared according to the method described in Diana et al., J. Med. Chem 1995, vol. 38, 1355). Antiviral data obtained for the test compounds are shown in Tables 1 and 3, where all data are for HRV serotype-14 unless otherwise noted in parentheses.

HRV serotype 1A = assay: Antirhinoviral H1-HeLa cell culture assay (XTT), HRV-1A; type: cell-based, human rhinovirus; conditions: H1-HeLa cells
Method: as §1, §2, §3, §4, §5

[1] = Cytotoxicity in uninfected H1-HeLa cells (anticoxsackieviral assay, XTT); type: cell-based; conditions: human; 50% cytotoxic dose, uninfected H1-HeLa cells (Table 4)
Method: Coxsackievirus types A-21 (CAV-21) and B3 (CVB-3) were purchased from American Type Culture Collection (ATCC, Rockville, Md.). Virus stocks were propagated and antiviral assays were performed in H1-HeLa cells (ATCC). Cells were grown in minimal essential medium with 10% fetal bovine serum (Life Technologies, Gaithersburg, Md.).
The ability of compounds to protect cells against either CAV-21 or CVB-3 infection was measured by the XTT dye reduction method. This method is described in Weislow et al., J. Natl. Cancer Inst. 1989, vol. 81, 577-586. H1-HeLa cells were infected with CAV-21 or CVB-3 at a multiplicity of infection (m.o.i.) of 0.025 or 0.075, respectively, or mock-infected with medium only. H1-HeLa cells were plated at 4×10^4 cells per well in a 96-well plate and incubated with appropriate concentrations of the test compound. One day (CVB-3) or two days (CAV-21) later, XTT/PMS was added to test plates and the amount of formazan produced was quantified spectrophotometrically at 450/650 nm. The EC50 was calculated as the concentration of compound that increased the formazan production in compound-treated, virus-infected cells to 50% of that produced by compound-free, uninfected cells. The 50% cytotoxic dose (CC50) was calculated as the concentration of compound that decreased formazan production in compound-treated, uninfected cells to 50% of that produced in compound-free, uninfected cells. The therapeutic index (TI) was calculated by dividing the CC50 by the EC50.

[2] = Cytotoxicity in mock-infected H1-HeLa cells (antirhinoviral assay, XTT); type: cell-based; conditions: human, 50% cytotoxic dose
Method: as §3, §4

[3] = Cytotoxicity in uninfected MRC-5 cells (anti-echoviral/-enteroviral assay, XTT); type: cell-based; conditions: human, 50% cytotoxic dose
Method: Echovirus type 11 (EV 11) and enterovirus type 70 (EV 70) were purchased from ATCC (Rockville, Md.). Virus stocks were propagated and antiviral assays were performed in MRC-5 cells (ATCC). Cells were grown in minimal essential medium with 10% fetal bovine serum (Life Technologies, Gaithersburg, Md.).
The ability of compounds to protect cells against either EV 11 or EV 70 infection was measured by the XTT dye reduction method (Weislow et al., J. Natl. Cancer Inst. 1989, vol. 81, 577-586). MRC-5 cells were infected with EV 11 or EV 70 at an m.o.i. of 0.003 or 0.004, respectively, or mock-infected with medium only. Infected or uninfected cells were added at 1×10^4 cells per well and incubated with appropriate concentrations of compound. Four days later, XTT/PMS was added to test plates, and the amount of formazan produced was quantified spectrophotometrically at 450/650 nm. The EC50 was calculated as the concentration of compound that increased the formazan production in compound-treated, virus-infected cells to 50% of that produced by compound-free, uninfected cells. The 50% cytotoxic dose (CC50) was calculated as the concentration of compound that decreased formazan production in compound-treated, uninfected cells to 50% of that produced in compound-free, uninfected cells. The therapeutic index (TI) was calculated by dividing the CC50 by the EC50.

[4] = HRV serotype-14, H1-HeLa cells (Table 1), read-out: Cell Protection EC50
[5] = HRV serotype-14, H1-HeLa cells (Table 3), read-out: EC50

Row | EC50 (HRV serotype 10) | EC50 (HRV-14; [4]) | EC50 (HRV-14; [5]) | EC50 (HRV serotype 1A) | Compound | CC50 [1] | CC50 at 2 days [2] | CC50 at 4 days [3]
1 | 2.7 µM | 220 nM | 220 nM | 7.1 µM | CCOC(=O)/C=C/[C@H](CCC(N)=O)NC(=O)[C@H](Cc1ccc(C)cc1)NC(=O)[C@@H](NC(=O)C1SCCS1)C(C)(C)C [(A-15)] | – | – | –
2 | 4.5 µM | 450 nM | 450 nM | 4.8 µM | CCOC(=O)/C=C/[C@H](CCC(N)=O)NC(=O)[C@H](Cc1ccc(C)cc1)NC(=O)[C@@H](NC(=O)c1ccc[nH]1)C(C)(C)C [(A-16)] | – | – | –
3 | – | – | – | – | CCOC(=O)/C=C/[C@H](C[C@@H]1CCNC1=O)NC(=O)[C@@H](CC(=O)[C@@H](NC(=O)c1cc(C)on1)C(C)C)Cc1ccc(F)cc1 [(B-2), Ethyl-3-{(5′-Methylisoxazole-3′-carbonyl)-L-ValΨ(COCH2)-L-(4-F-Phe)-L-((S)-Pyrrol-Ala)}-E-Propenoate] | > 100 µM | > 100 µM | > 100 µM
